Test system: 556581-035-R-J1-PDC complex spheroid growth
Assay: Anticancer human tumor 556581-035-R-J1-PDC patient-derived ovarian carcinoma cell line growth inhibition [Asc]
Details: for IC50: curve of first compound; for viability, T/C: stronger effect = lower value
How it was run: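 Stromal components (HUVEC and hMSC) are co-assembled with the cancer cells into multicellular spheroids. Drugs are then added singly or paired, at concentrations falling by half-log increments from a clinically achievable maximum, capped at 10 microM without known Cmax.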

[1] = second compound 0.01 µM, first compound 0.0316 µM
[2] = second compound 0.01 µM, first compound 0.1 µM
[3] = second compound 0.01 µM, first compound 0.316 µM
[4] = second compound 0.01 µM, first compound 1 µM
[5] = second compound 0.0316 µM, first compound 0.0316 µM
[6] = second compound 0.0316 µM, first compound 0.1 µM
[7] = second compound 0.0316 µM, first compound 0.316 µM
[8] = second compound 0.0316 µM, first compound 1 µM
[9] = second compound 0.1 µM, first compound 0.0316 µM
[10] = second compound 0.1 µM, first compound 0.1 µM
[11] = second compound 0.1 µM, first compound 0.316 µM
[12] = second compound 0.1 µM, first compound 1 µM
[13] = second compound 0.316 µM, first compound 0.0316 µM
[14] = second compound 0.316 µM, first compound 0.1 µM
[15] = second compound 0.316 µM, first compound 0.316 µM
[16] = second compound 0.316 µM, first compound 1 µM
[17] = second compound 1 µM, first compound 0.0316 µM
[18] = second compound 1 µM, first compound 0.1 µM
[19] = second compound 1 µM, first compound 0.316 µM
[20] = second compound 1 µM, first compound 1 µM
[21] = second compound 0.01 µM, first compound 0.00316 µM
[22] = second compound 0.01 µM, first compound 0.01 µM
[23] = second compound 0.0316 µM, first compound 0.00316 µM
[24] = second compound 0.0316 µM, first compound 0.01 µM
[25] = second compound 0.1 µM, first compound 0.00316 µM
[26] = second compound 0.1 µM, first compound 0.01 µM
[27] = second compound 0.316 µM, first compound 0.00316 µM
[28] = second compound 0.316 µM, first compound 0.01 µM
[29] = second compound 1 µM, first compound 0.00316 µM
[30] = second compound 1 µM, first compound 0.01 µM
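Also: spheroids exposed to agents for 7 days before viability read.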

With C=CC(=O)N1CCN(c2nc(=O)n(-c3c(C)ccnc3C(C)C)c3nc(-c4c(O)cccc4F)c(F)cc23)C(C)C1 (stereo not given) + CNC(C)C(=O)NC1CN(S(=O)(=O)c2cccc(S(=O)(=O)N3CCC4CCC(C(=O)NC(c5ccccc5)c5ccccc5)N4C(=O)C(NC(=O)C(C)NC)C3)c2)CCC2CCC(C(=O)NC(c3ccccc3)c3ccccc3)N2C1=O the IC50 (second compound 0.01 µM) was over 10000 nM, the IC50 (second compound 0.0316 µM) was over 10000 nM and the IC50 (second compound 0.1 µM) was over 10000 nM. The IC50 (second compound 0.316 µM) was over 10000 nM, the IC50 (second compound 1 µM) was over 10000 nM and the viability, T/C [1] was 88.6%. The viability, T/C [2] was 90%, the viability, T/C [3] was 82.4% and the viability, T/C [4] was 101%. It also gave a viability, T/C (second compound 0.01 µM, first compound 3.16 µM) of 103%, a viability, T/C (second compound 0.01 µM, first compound 10 µM) of 86.5% and a viability, T/C [5] of 95%. It also gave a viability, T/C [6] of 98%, a viability, T/C [7] of 83% and a viability, T/C [8] of 91.5%. The viability, T/C (second compound 0.0316 µM, first compound 3.16 µM) was 94.3%, the viability, T/C (second compound 0.0316 µM, first compound 10 µM) was 78.8% and the viability, T/C [9] was 98.3%. For the same molecule, the viability, T/C [10] was 81.5%, the viability, T/C [11] was 89.1% and the viability, T/C [12] was 95.3%. It also gave a viability, T/C (second compound 0.1 µM, first compound 3.16 µM) of 91.3%, a viability, T/C (second compound 0.1 µM, first compound 10 µM) of 100% and a viability, T/C [13] of 92.3%. For the same molecule, the viability, T/C [14] was 85.2%, the viability, T/C [15] was 94.2% and the viability, T/C [16] was 79.8%. The viability, T/C (second compound 0.316 µM, first compound 3.16 µM) was 78.9%, the viability, T/C (second compound 0.316 µM, first compound 10 µM) was 81.4% and the viability, T/C [17] was 79.5%. For the same molecule, the viability, T/C [18] was 71.5%, the viability, T/C [19] was 86.3% and the viability, T/C [20] was 74.8%. The viability, T/C (second compound 1 µM, first compound 3.16 µM) was 87.2% and the viability, T/C (second compound 1 µM, first compound 10 µM) was 66.5%.
COc1c(OCCCN2CCOCC2)ccc2c3n(c(=NC(=O)c4cnc(N)nc4)nc12)CCN3 + CNC(C)C(=O)NC1CN(S(=O)(=O)c2cccc(S(=O)(=O)N3CCC4CCC(C(=O)NC(c5ccccc5)c5ccccc5)N4C(=O)C(NC(=O)C(C)NC)C3)c2)CCC2CCC(C(=O)NC(c3ccccc3)c3ccccc3)N2C1=O showed an IC50 (second compound 0.01 µM) of 17.2 nM, an IC50 (second compound 0.0316 µM) of 22 nM and an IC50 (second compound 0.1 µM) of 9.5 nM. For the same molecule, the IC50 (second compound 0.316 µM) was 14.5 nM, the IC50 (second compound 1 µM) was 9.84 nM and the viability, T/C [21] was 70.3%. For the same molecule, the viability, T/C [22] was 58.8%, the viability, T/C [1] was 37.7% and the viability, T/C [2] was 35.7%. The viability, T/C [3] was 19.1%, the viability, T/C [4] was 12.2% and the viability, T/C [23] was 64.2%. For the same molecule, the viability, T/C [24] was 58.2%, the viability, T/C [5] was 45.4% and the viability, T/C [6] was 35.5%. It also gave a viability, T/C [7] of 22.4%, a viability, T/C [8] of 9.75% and a viability, T/C [25] of 58.6%. It also gave a viability, T/C [26] of 49.9%, a viability, T/C [9] of 38.5% and a viability, T/C [10] of 31.6%. The viability, T/C [11] was 19.3%, the viability, T/C [12] was 10.5% and the viability, T/C [27] was 64.6%. The viability, T/C [28] was 53.1%, the viability, T/C [13] was 42.4% and the viability, T/C [14] was 27.5%. For the same molecule, the viability, T/C [15] was 16.4%, the viability, T/C [16] was 9.55% and the viability, T/C [29] was 60.7%. It also gave a viability, T/C [30] of 47.1%, a viability, T/C [17] of 40.9% and a viability, T/C [18] of 27.3%. The viability, T/C [19] was 14.9% and the viability, T/C [20] was 7.78%.
NC(=O)C(=Cn1cnc(-c2cc(C(F)(F)F)cc(C(F)(F)F)c2)n1)c1cncnc1 + CNC(C)C(=O)NC1CN(S(=O)(=O)c2cccc(S(=O)(=O)N3CCC4CCC(C(=O)NC(c5ccccc5)c5ccccc5)N4C(=O)C(NC(=O)C(C)NC)C3)c2)CCC2CCC(C(=O)NC(c3ccccc3)c3ccccc3)N2C1=O gave an IC50 (second compound 0.01 µM) of over 300 nM, an IC50 (second compound 0.0316 µM) of over 300 nM and an IC50 (second compound 0.1 µM) of over 300 nM. It also gave an IC50 (second compound 0.316 µM) of over 300 nM, an IC50 (second compound 1 µM) of over 300 nM and a viability, T/C (second compound 0.01 µM, first compound 0.000949 µM) of 93%. It also gave a viability, T/C (second compound 0.01 µM, first compound 0.003 µM) of 85.2%, a viability, T/C (second compound 0.01 µM, first compound 0.00949 µM) of 63.7% and a viability, T/C (second compound 0.01 µM, first compound 0.03 µM) of 66.8%. The viability, T/C (second compound 0.01 µM, first compound 0.0949 µM) was 90.1%, the viability, T/C (second compound 0.01 µM, first compound 0.3 µM) was 72.6% and the viability, T/C (second compound 0.0316 µM, first compound 0.000949 µM) was 105%. For the same molecule, the viability, T/C (second compound 0.0316 µM, first compound 0.003 µM) was 86%, the viability, T/C (second compound 0.0316 µM, first compound 0.00949 µM) was 87.9% and the viability, T/C (second compound 0.0316 µM, first compound 0.03 µM) was 79.2%. The viability, T/C (second compound 0.0316 µM, first compound 0.0949 µM) was 75.7%, the viability, T/C (second compound 0.0316 µM, first compound 0.3 µM) was 82% and the viability, T/C (second compound 0.1 µM, first compound 0.000949 µM) was 70.7%. The viability, T/C (second compound 0.1 µM, first compound 0.003 µM) was 79.5%, the viability, T/C (second compound 0.1 µM, first compound 0.00949 µM) was 76.1% and the viability, T/C (second compound 0.1 µM, first compound 0.03 µM) was 50%. The viability, T/C (second compound 0.1 µM, first compound 0.0949 µM) was 64.1%, the viability, T/C (second compound 0.1 µM, first compound 0.3 µM) was 63.3% and the viability, T/C (second compound 0.316 µM, first compound 0.000949 µM) was 76.5%. For the same molecule, the viability, T/C (second compound 0.316 µM, first compound 0.003 µM) was 75.8%, the viability, T/C (second compound 0.316 µM, first compound 0.00949 µM) was 71.7% and the viability, T/C (second compound 0.316 µM, first compound 0.03 µM) was 65.8%. For the same molecule, the viability, T/C (second compound 0.316 µM, first compound 0.0949 µM) was 65.3%, the viability, T/C (second compound 0.316 µM, first compound 0.3 µM) was 62.2% and the viability, T/C (second compound 1 µM, first compound 0.000949 µM) was 76.9%. The viability, T/C (second compound 1 µM, first compound 0.003 µM) was 73%, the viability, T/C (second compound 1 µM, first compound 0.00949 µM) was 66.7% and the viability, T/C (second compound 1 µM, first compound 0.03 µM) was 63%. It also gave a viability, T/C (second compound 1 µM, first compound 0.0949 µM) of 59.7% and a viability, T/C (second compound 1 µM, first compound 0.3 µM) of 53.3%.
Molecule NC1CCC(NC2CC2c2ccccc2)CC1 (stereo not given) + CNC(C)C(=O)NC1CN(S(=O)(=O)c2cccc(S(=O)(=O)N3CCC4CCC(C(=O)NC(c5ccccc5)c5ccccc5)N4C(=O)C(NC(=O)C(C)NC)C3)c2)CCC2CCC(C(=O)NC(c3ccccc3)c3ccccc3)N2C1=O has an IC50 (second compound 0.01 µM) of over 100 nM, an IC50 (second compound 0.0316 µM) of over 100 nM and an IC50 (second compound 0.1 µM) of over 100 nM. The IC50 (second compound 0.316 µM) was over 100 nM, the IC50 (second compound 1 µM) was over 100 nM and the viability, T/C (second compound 0.01 µM, first compound 0.000316 µM) was 90.1%. It also gave a viability, T/C (second compound 0.01 µM, first compound 0.001 µM) of 93.5%, a viability, T/C [21] of 86.5% and a viability, T/C [22] of 92.9%. The viability, T/C [1] was 95.8%, the viability, T/C [2] was 86.8% and the viability, T/C (second compound 0.0316 µM, first compound 0.000316 µM) was 86.3%. The viability, T/C (second compound 0.0316 µM, first compound 0.001 µM) was 83.8%, the viability, T/C [23] was 87.4% and the viability, T/C [24] was 72%. It also gave a viability, T/C [5] of 80.2%, a viability, T/C [6] of 86.1% and a viability, T/C (second compound 0.1 µM, first compound 0.000316 µM) of 86.1%. The viability, T/C (second compound 0.1 µM, first compound 0.001 µM) was 87.5%, the viability, T/C [25] was 75.1% and the viability, T/C [26] was 64.5%. It also gave a viability, T/C [9] of 80.5%, a viability, T/C [10] of 86% and a viability, T/C (second compound 0.316 µM, first compound 0.000316 µM) of 75.2%. It also gave a viability, T/C (second compound 0.316 µM, first compound 0.001 µM) of 73.1%, a viability, T/C [27] of 73% and a viability, T/C [28] of 71.9%. It also gave a viability, T/C [13] of 77.3%, a viability, T/C [14] of 64.2% and a viability, T/C (second compound 1 µM, first compound 0.000316 µM) of 66.8%. The viability, T/C (second compound 1 µM, first compound 0.001 µM) was 73%, the viability, T/C [29] was 73.1% and the viability, T/C [30] was 63.4%. For the same molecule, the viability, T/C [17] was 67.6% and the viability, T/C [18] was 71.4%.

From PubChem BioAssay AID1963450 (Molecular Pharmacology Branch, DTP, NCI, 2024)
